Experimental data taken from article PMC3694096, “Development of Novel In Vivo Chemical Probes to Address CNS Protein Kinase Involvement in Synaptic Dysfunction” (PLoS ONE, 2013).
Read-outs that look alike come from different tables or passages of the source.

Experiments:
Format in all cases: biochemical
Abl (M351T) = target: T1, Abl (M351T) (Homo sapiens, UniProt P00519, M351T); assay: Kinome profiler screen; settings: at 20,000 nM inhibitor; kinase activity remaining
T1 construct: purchased Millipore KinaseProfiler

AMPKα1 = target: T2, AMPKα1 (Homo sapiens, UniProt Q13131); assay: Kinome profiler screen; settings: at 20,000 nM inhibitor; kinase activity remaining
T2 construct: purchased Millipore KinaseProfiler

Aurora-A = target: T3, Aurora-A (Homo sapiens, UniProt O14965); assay: Kinome profiler screen; settings: at 20,000 nM inhibitor; kinase activity remaining
T3 construct: purchased Millipore KinaseProfiler

BrSK1 = target: T4, BrSK1 (Homo sapiens, UniProt Q8TDC3); assay: Kinome profiler screen
T4 construct: purchased Millipore KinaseProfiler

BrSK2 = target: T5, BrSK2 (Homo sapiens, UniProt Q8IWQ3); assay: Kinome profiler screen; settings: at 20,000 nM inhibitor; kinase activity remaining
T5 construct: purchased Millipore KinaseProfiler

CDK6/cyclinD3 = target: T6, CDK6/cyclinD3 (Homo sapiens, UniProt Q00534); assay: Kinome profiler screen; settings: at 20,000 nM inhibitor; kinase activity remaining
T6 construct: purchased Millipore KinaseProfiler

CDK7/cyclinH/MAT1 = target: T7, CDK7/cyclinH/MAT1 (Homo sapiens, UniProt P50613); assay: Kinome profiler screen; settings: at 20,000 nM inhibitor; kinase activity remaining
T7 construct: purchased Millipore KinaseProfiler

CK1δ = target: T8, CK1δ (Homo sapiens, UniProt P48730); assay: Kinome profiler screen
T8 construct: purchased Millipore

cKit(D816H) = target: T9, cKit(D816H) (Homo sapiens, UniProt P10721, D816H); assay: Kinome profiler screen; settings: at 20,000 nM inhibitor; kinase activity remaining
T9 construct: purchased Millipore KinaseProfiler

DRAK1 = target: T10, DRAK1 (Homo sapiens, UniProt Q9UEE5); assay: Kinome profiler screen; settings: at 20,000 nM inhibitor; kinase activity remaining
T10 construct: purchased Millipore KinaseProfiler

EphA4 = target: T11, EphA4 (Homo sapiens, UniProt P54764); assay: Kinome profiler screen; settings: at 20,000 nM inhibitor; kinase activity remaining
T11 construct: purchased Millipore KinaseProfiler

FGFR1(V561M) = target: T12, FGFR1(V561M) (Homo sapiens, UniProt P11362, V561M); assay: Kinome profiler screen; settings: at 20,000 nM inhibitor; kinase activity remaining
T12 construct: purchased Millipore KinaseProfiler

Flt4 = target: T13, Flt4 (Homo sapiens, UniProt P35916); assay: Kinome profiler screen; settings: for activity at 20 µM: at 20,000 nM inhibitor, kinase activity remaining
T13 construct: purchased Millipore

IRAK4 = target: T14, IRAK4 (Homo sapiens, UniProt Q9NWZ3); assay: Kinome profiler screen; settings: at 20,000 nM inhibitor; kinase activity remaining
T14 construct: purchased Millipore KinaseProfiler

JNK3 = JNK3 (Homo sapiens, UniProt P53779); assay: Kinome profiler screen; settings: for activity at 20 µM: at 20,000 nM inhibitor, kinase activity remaining
Met(Y1248D) = target: T15, Met(Y1248D) (Homo sapiens, UniProt P08581, Y1230D); assay: Kinome profiler screen; settings: at 20,000 nM inhibitor; kinase activity remaining
T15 construct: purchased Millipore KinaseProfiler

MLK1 = target: T16, MLK1 (Homo sapiens, UniProt P80192); assay: Kinome profiler screen; settings: at 20,000 nM inhibitor; kinase activity remaining
T16 construct: purchased Millipore KinaseProfiler

Mnk2 = target: T17, Mnk2 (Homo sapiens, UniProt Q9HBH9); assay: Kinome profiler screen; settings: at 20,000 nM inhibitor; kinase activity remaining
T17 construct: purchased Millipore KinaseProfiler

MRCKα = target: T18, MRCKα (Homo sapiens, UniProt Q5VT25); assay: Kinome profiler screen; settings: at 20,000 nM inhibitor; kinase activity remaining
T18 construct: purchased Millipore KinaseProfiler

MST1 = target: T19, MST1 (Homo sapiens, UniProt Q13043); assay: Kinome profiler screen; settings: at 20,000 nM inhibitor; kinase activity remaining
T19 construct: purchased Millipore KinaseProfiler

mTOR/FKBP12 = target: T20, mTOR/FKBP12 (Homo sapiens, UniProt P42345); assay: Kinome profiler screen; settings: at 20,000 nM inhibitor; kinase activity remaining
T20 construct: purchased Millipore KinaseProfiler

NEK3 = target: T21, NEK3 (Homo sapiens, UniProt P51956); assay: Kinome profiler screen; settings: at 20,000 nM inhibitor; kinase activity remaining
T21 construct: purchased Millipore KinaseProfiler

p70S6K = target: T22, p70S6K (Homo sapiens, UniProt P23443); assay: Kinome profiler screen; settings: at 20,000 nM inhibitor; kinase activity remaining
T22 construct: purchased Millipore KinaseProfiler

PAK3 = target: T23, PAK3 (Homo sapiens, UniProt O75914); assay: Kinome profiler screen; settings: at 20,000 nM inhibitor; kinase activity remaining
T23 construct: purchased Millipore KinaseProfiler

[1] = target: T24, PI3 Kinase (p110α/p65α)(m) (Mus musculus, UniProt P42337); assay: Kinome profiler screen; settings: at 20,000 nM inhibitor; kinase activity remaining
T24 construct: purchased Millipore KinaseProfiler

PI3K-C2α = target: T25, PI3K-C2α (Homo sapiens, UniProt O00443); assay: Kinome profiler screen; settings: for activity at 20 µM: at 20,000 nM inhibitor, kinase activity remaining
T25 construct: purchased Millipore

PIP4K2α = target: T26, PIP4K2α (Homo sapiens, UniProt P48426); assay: Kinome profiler screen; settings: at 20,000 nM inhibitor; kinase activity remaining
T26 construct: purchased Millipore KinaseProfiler

Pim-1 = target: T27, Pim-1 (Homo sapiens, UniProt P11309); assay: Kinome profiler screen; settings: at 20,000 nM inhibitor; kinase activity remaining
T27 construct: purchased Millipore KinaseProfiler

PKBα = target: T28, PKBα (Homo sapiens, UniProt P31749); assay: Kinome profiler screen; settings: at 20,000 nM inhibitor; kinase activity remaining
T28 construct: purchased Millipore KinaseProfiler

PKCβI = target: T29, PKCβI (Homo sapiens, UniProt P05771); assay: Kinome profiler screen; settings: at 20,000 nM inhibitor; kinase activity remaining
T29 construct: purchased Millipore KinaseProfiler

PKCγ = target: T30, PKCγ (Homo sapiens, UniProt P05129); assay: Kinome profiler screen; settings: at 20,000 nM inhibitor; kinase activity remaining
T30 construct: purchased Millipore KinaseProfiler

PKCδ = target: T31, PKCδ (Homo sapiens, UniProt Q05655); assay: Kinome profiler screen; settings: at 20,000 nM inhibitor; kinase activity remaining
T31 construct: purchased Millipore KinaseProfiler

PKCζ = target: T32, PKCζ (Homo sapiens, UniProt Q05513); assay: Kinome profiler screen; settings: at 20,000 nM inhibitor; kinase activity remaining
T32 construct: purchased Millipore KinaseProfiler

PKG1β = target: T33, PKG1β (Homo sapiens, UniProt Q13976); assay: Kinome profiler screen; settings: at 20,000 nM inhibitor; kinase activity remaining
T33 construct: purchased Millipore KinaseProfiler

Ret (V804L) = target: T34, Ret (V804L) (Homo sapiens, UniProt P07949, V804L); assay: Kinome profiler screen; settings: at 20,000 nM inhibitor; kinase activity remaining
T34 construct: purchased Millipore KinaseProfiler

Rsk3 = target: T35, Rsk3 (Homo sapiens, UniProt Q15349); assay: Kinome profiler screen; settings: at 20,000 nM inhibitor; kinase activity remaining
T35 construct: purchased Millipore KinaseProfiler

SGK2 = target: T36, SGK2 (Homo sapiens, UniProt Q9HBY8); assay: Kinome profiler screen; settings: at 20,000 nM inhibitor; kinase activity remaining
T36 construct: purchased Millipore KinaseProfiler

SGK3 = target: T37, SGK3 (Homo sapiens, UniProt Q96BR1); assay: Kinome profiler screen; settings: at 20,000 nM inhibitor; kinase activity remaining
T37 construct: purchased Millipore KinaseProfiler

SRPK2 = target: T38, SRPK2 (Homo sapiens, UniProt P78362); assay: Kinome profiler screen; settings: at 20,000 nM inhibitor; kinase activity remaining
T38 construct: purchased Millipore KinaseProfiler

TAK1 = target: T39, TAK1 (Homo sapiens, UniProt O43318); assay: Kinome profiler screen; settings: at 20,000 nM inhibitor; kinase activity remaining
T39 construct: purchased Millipore KinaseProfiler

TAO2 = target: T40, TAO2 (Homo sapiens, UniProt Q9UL54); assay: Kinome profiler screen; settings: at 20,000 nM inhibitor; kinase activity remaining
T40 construct: purchased Millipore KinaseProfiler

TAO3 = target: T41, TAO3 (Homo sapiens, UniProt Q9H2K8); assay: Kinome profiler screen; settings: at 20,000 nM inhibitor; kinase activity remaining
T41 construct: purchased Millipore KinaseProfiler

>290 mammalian kinases = assay: Hierarchal large-scale kinome screen, overall outcome; settings: overall outcome in words

T25 sequence (O00443 whole entry): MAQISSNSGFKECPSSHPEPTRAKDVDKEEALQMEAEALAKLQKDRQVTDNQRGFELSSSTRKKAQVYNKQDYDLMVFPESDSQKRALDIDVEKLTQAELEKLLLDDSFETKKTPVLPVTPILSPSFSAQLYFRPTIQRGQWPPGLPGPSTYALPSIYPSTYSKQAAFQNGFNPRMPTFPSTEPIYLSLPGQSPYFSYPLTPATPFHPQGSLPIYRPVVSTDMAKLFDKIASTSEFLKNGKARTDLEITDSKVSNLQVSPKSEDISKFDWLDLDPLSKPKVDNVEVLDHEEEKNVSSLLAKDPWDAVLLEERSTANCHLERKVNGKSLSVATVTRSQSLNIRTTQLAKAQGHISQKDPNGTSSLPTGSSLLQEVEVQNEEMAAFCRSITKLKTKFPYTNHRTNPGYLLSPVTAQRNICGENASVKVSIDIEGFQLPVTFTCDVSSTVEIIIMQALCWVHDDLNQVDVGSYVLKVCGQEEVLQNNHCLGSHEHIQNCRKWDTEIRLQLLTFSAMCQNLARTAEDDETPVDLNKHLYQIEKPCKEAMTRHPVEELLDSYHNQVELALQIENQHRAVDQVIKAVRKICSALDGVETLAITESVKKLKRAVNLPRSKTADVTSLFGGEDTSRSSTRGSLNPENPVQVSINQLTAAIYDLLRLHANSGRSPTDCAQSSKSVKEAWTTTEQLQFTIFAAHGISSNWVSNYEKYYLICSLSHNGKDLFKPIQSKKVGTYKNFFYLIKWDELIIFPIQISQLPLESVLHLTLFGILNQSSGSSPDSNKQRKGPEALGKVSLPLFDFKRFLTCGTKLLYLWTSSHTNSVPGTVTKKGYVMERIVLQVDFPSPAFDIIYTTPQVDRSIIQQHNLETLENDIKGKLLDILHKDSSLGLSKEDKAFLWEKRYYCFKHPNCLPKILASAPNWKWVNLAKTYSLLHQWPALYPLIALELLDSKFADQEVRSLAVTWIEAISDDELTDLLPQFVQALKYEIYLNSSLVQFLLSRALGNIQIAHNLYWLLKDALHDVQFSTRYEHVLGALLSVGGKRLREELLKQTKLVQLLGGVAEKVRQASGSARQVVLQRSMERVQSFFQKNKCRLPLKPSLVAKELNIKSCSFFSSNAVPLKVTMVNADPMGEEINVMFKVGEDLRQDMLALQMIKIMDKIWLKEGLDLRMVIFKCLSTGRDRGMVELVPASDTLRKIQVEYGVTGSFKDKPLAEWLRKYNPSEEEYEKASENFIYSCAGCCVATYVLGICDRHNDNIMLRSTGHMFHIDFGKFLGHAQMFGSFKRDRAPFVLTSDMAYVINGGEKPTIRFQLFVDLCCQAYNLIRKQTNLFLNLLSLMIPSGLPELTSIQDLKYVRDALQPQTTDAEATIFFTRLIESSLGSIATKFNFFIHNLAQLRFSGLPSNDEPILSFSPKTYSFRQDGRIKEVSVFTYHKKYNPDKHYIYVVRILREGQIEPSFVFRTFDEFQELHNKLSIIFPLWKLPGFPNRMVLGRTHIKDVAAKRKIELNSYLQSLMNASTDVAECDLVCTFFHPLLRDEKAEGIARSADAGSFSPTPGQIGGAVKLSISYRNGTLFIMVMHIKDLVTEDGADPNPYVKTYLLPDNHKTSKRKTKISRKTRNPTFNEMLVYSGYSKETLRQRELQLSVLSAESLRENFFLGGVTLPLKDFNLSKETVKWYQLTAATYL
T13 sequence (P35916 25-1363): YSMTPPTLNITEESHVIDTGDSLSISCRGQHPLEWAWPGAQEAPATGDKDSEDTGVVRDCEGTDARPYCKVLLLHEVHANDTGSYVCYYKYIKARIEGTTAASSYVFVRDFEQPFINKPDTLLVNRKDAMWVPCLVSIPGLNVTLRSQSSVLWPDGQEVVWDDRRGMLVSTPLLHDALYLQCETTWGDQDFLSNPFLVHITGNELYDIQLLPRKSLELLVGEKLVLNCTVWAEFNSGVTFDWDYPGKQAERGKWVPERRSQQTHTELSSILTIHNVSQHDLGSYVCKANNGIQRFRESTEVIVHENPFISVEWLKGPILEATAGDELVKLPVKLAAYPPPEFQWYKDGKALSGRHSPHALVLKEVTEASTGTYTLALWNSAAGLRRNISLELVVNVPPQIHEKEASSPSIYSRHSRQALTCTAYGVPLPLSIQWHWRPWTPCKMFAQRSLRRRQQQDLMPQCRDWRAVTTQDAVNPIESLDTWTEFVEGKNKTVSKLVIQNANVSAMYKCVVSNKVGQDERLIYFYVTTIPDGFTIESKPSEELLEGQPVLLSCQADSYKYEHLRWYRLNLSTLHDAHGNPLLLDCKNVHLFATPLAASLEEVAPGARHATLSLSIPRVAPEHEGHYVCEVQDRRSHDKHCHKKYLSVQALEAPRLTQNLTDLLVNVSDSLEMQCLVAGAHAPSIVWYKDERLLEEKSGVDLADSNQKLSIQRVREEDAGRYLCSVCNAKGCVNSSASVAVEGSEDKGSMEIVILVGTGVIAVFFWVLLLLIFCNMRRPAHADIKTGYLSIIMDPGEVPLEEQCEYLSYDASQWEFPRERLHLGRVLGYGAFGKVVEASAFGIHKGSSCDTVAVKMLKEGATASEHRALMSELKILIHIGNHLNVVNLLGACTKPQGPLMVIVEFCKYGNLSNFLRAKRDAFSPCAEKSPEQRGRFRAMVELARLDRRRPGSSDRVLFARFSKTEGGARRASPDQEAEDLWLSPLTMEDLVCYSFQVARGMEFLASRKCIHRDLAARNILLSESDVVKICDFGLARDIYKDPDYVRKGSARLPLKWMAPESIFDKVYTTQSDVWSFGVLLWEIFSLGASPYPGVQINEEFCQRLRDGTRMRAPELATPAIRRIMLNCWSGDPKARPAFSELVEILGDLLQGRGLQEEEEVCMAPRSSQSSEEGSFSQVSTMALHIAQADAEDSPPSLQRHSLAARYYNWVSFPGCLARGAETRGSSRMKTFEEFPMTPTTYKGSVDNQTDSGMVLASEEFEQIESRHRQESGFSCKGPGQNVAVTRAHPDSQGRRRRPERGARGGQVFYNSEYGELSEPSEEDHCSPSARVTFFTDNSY
Sequence of JNK3 (P53779 whole entry): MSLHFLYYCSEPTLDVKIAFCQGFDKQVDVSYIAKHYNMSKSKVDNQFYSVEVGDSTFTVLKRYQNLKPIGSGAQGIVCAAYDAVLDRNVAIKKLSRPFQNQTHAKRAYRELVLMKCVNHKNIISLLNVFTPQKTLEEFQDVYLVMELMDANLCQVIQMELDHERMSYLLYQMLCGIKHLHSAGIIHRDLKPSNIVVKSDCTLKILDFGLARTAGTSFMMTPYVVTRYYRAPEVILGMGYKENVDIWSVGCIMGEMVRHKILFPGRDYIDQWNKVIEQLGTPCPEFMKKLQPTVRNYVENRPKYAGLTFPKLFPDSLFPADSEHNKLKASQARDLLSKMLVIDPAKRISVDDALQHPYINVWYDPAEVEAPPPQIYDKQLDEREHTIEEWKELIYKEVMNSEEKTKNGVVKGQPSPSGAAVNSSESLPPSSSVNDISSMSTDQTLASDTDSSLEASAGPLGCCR
T2 sequence (Q13131 whole entry): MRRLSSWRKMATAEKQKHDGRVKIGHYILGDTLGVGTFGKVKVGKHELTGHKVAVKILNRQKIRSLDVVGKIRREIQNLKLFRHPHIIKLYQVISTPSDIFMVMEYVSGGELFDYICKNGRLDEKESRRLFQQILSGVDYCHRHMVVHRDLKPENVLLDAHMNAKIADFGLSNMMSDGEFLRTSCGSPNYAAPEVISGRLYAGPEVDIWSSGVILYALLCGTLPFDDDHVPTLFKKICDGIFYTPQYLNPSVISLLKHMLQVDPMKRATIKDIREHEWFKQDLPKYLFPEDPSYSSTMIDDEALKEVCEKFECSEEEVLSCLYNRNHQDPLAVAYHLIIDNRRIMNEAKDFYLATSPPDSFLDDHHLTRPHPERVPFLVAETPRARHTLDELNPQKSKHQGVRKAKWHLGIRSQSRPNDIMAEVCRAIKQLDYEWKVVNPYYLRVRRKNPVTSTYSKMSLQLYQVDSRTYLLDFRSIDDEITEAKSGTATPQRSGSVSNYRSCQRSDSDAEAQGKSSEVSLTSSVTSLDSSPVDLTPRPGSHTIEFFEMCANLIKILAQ
T2 sequence (Q9Y478 whole entry partner): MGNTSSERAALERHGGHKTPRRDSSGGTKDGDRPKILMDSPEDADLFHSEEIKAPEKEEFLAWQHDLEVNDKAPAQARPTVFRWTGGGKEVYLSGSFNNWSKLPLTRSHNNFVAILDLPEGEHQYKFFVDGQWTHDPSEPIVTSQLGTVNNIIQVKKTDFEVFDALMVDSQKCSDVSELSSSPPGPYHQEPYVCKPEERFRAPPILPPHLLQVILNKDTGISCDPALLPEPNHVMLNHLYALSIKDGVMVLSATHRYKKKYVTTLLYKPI
T2 sequence (P54619 whole entry partner): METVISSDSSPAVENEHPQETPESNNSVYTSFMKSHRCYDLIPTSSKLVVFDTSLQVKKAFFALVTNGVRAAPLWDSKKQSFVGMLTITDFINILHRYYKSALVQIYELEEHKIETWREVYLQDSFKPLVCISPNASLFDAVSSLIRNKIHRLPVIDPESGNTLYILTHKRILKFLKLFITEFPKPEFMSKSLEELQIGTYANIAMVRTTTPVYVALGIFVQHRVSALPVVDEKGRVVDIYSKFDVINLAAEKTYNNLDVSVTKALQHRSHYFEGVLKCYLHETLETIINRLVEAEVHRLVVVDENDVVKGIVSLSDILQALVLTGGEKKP
T27 sequence (P11309 whole entry): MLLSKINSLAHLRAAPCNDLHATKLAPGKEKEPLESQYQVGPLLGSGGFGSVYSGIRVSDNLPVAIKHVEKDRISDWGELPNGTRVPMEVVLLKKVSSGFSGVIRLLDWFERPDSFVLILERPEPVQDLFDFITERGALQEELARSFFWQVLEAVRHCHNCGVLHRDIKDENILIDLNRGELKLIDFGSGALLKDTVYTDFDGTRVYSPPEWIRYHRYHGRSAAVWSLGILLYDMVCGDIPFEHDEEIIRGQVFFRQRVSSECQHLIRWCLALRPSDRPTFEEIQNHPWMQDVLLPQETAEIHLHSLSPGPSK

CN(C)c1cc(-c2ccncc2)c(-c2cccc3ccccc23)nn1 [MW181, N,N-dimethyl-6-(naphthalen-1-yl)-5-(pyridin-4-yl)pyridazin-3-amine]
activity at 20 µM (Abl (M351T)): 101%
activity at 20 µM (AMPKα1): 105%
activity at 20 µM (Aurora-A): 113%
activity at 20 µM (BrSK1; at 20,000 nM inhibitor, kinase activity remaining, read-out: % Activity): 94%
activity at 20 µM (BrSK2): 105%
activity at 20 µM (CDK6/cyclinD3): 103%
activity at 20 µM (CDK7/cyclinH/MAT1): 99%
activity at 20 µM (CK1δ): 89%
activity at 20 µM (cKit(D816H)): 102%
activity at 20 µM (DRAK1): 113%
activity at 20 µM (EphA4): 110%
activity at 20 µM (FGFR1(V561M)): 93%
activity at 20 µM (Flt4): 98%
activity at 20 µM (IRAK4): 100%
activity at 20 µM (JNK3): 12%
IC50 (JNK3; concentration-dependent follow-up of profiler hit, read-out: IC50): 2400 nM
activity at 20 µM (Met(Y1248D)): 94%
activity at 20 µM (MLK1): 95%
activity at 20 µM (Mnk2): 99%
activity at 20 µM (MRCKα): 103%
activity at 20 µM (MST1): 94%
activity at 20 µM (mTOR/FKBP12): 96%
activity at 20 µM (NEK3): 116%
activity at 20 µM (p70S6K): 94%
activity at 20 µM (PAK3): 122%
activity at 20 µM [1]: 100%
activity at 20 µM (PI3K-C2α): 99%
activity at 20 µM (PIP4K2α): 97%
activity at 20 µM (Pim-1): 107%
activity at 20 µM (PKBα): 90%
activity at 20 µM (PKCβI): 104%
activity at 20 µM (PKCγ): 96%
activity at 20 µM (PKCδ): 92%
activity at 20 µM (PKCζ): 98%
activity at 20 µM (PKG1β): 97%
activity at 20 µM (Ret (V804L)): 102%
activity at 20 µM (Rsk3): 114%
activity at 20 µM (SGK2): 102%
activity at 20 µM (SGK3): 100%
activity at 20 µM (SRPK2): 109%
activity at 20 µM (TAK1): 104%
activity at 20 µM (TAO2): 94%
activity at 20 µM (TAO3): 88%
Large Scale Kinome Screen (>290 mammalian kinases): p38αMAPK, p38βMAPK, and the atypical p38 kinase NLK as primary targets
Large Scale Kinome Screen (>290 mammalian kinases; listed as MW01-10-181SRM): negative except for the following MAPKs

CN(C)c1cc(-c2ccncc2)c(-c2ccc3ccccc3c2)nn1 [MW108, N, N-dimethyl-6-(naphthalen-2-yl)-5-(pyridin-4-yl)pyridazin-3-amine]
activity at 20 µM (Abl (M351T)): 106%
activity at 20 µM (AMPKα1): 101%
activity at 20 µM (Aurora-A): 118%
activity at 20 µM (BrSK1): 94%
activity at 20 µM (BrSK2): 88%
activity at 20 µM (CDK6/cyclinD3): 85%
activity at 20 µM (CDK7/cyclinH/MAT1): 98%
activity at 20 µM (CK1δ): 33%
activity at 20 µM (cKit(D816H)): 109%
activity at 20 µM (DRAK1): 86%
activity at 20 µM (EphA4): 97%
activity at 20 µM (FGFR1(V561M)): 90%
IC50 (Flt4): 4.91 µM
activity at 20 µM (Flt4): 11%
activity at 20 µM (IRAK4): 91%
IC50 (JNK3): 1260 nM
activity at 20 µM (JNK3): 5%
activity at 20 µM (Met(Y1248D)): 93%
activity at 20 µM (MLK1): 98%
activity at 20 µM (Mnk2): 99%
activity at 20 µM (MRCKα): 107%
activity at 20 µM (MST1): 105%
activity at 20 µM (mTOR/FKBP12): 100%
activity at 20 µM (NEK3): 98%
activity at 20 µM (p70S6K): 92%
activity at 20 µM (PAK3): 78%
activity at 20 µM [1]: 101%
IC50 (PI3K-C2α): > 30 µM
activity at 20 µM (PI3K-C2α): 29%
activity at 20 µM (PIP4K2α): 96%
activity at 20 µM (Pim-1): 103%
activity at 20 µM (PKBα): 99%
activity at 20 µM (PKCβI): 92%
activity at 20 µM (PKCγ): 93%
activity at 20 µM (PKCδ): 101%
activity at 20 µM (PKCζ): 103%
activity at 20 µM (PKG1β): 96%
activity at 20 µM (Ret (V804L)): 102%
activity at 20 µM (Rsk3): 83%
activity at 20 µM (SGK2): 92%
activity at 20 µM (SGK3): 104%
activity at 20 µM (SRPK2): 95%
activity at 20 µM (TAK1): 102%
activity at 20 µM (TAO2): 81%
activity at 20 µM (TAO3): 73%
Large Scale Kinome Screen (>290 mammalian kinases): only p38αMAPK as a potential target
Large Scale Kinome Screen (>290 mammalian kinases; listed as MW01-11-108SRM): negative except for p38αMAPK
